Key:
[1] = system: pooled human liver S9 fraction (pHLS9) and HepaRG cells; experiment: In vitro metabolism by pHLS9 and HepaRG cells (LC-HRMS/MS metabolite identification); assay type: in vitro ADME; details: 25 µM substrate
[2] = system: dopamine and serotonin transporters; design: method as in Wojcieszak et al. [2021]; details: ref Wojcieszak et al. [2021]; cited from earlier work
[3] = system: plasma proteins (pooled human blood plasma); experiment: In vitro plasma protein binding (ultrafiltration, Centrifree); assay type: in vitro ADME
Method: (§1) PPB was investigated according to a previous study with minor modifications (Kroesen et al. [2025]). Fresh and pooled human blood plasma (450 µL) was spiked with 50 µL of a 5 µM methanolic solution of 4MeO-NE-BP, 4MeO-αP-BP, 4MeO-αP-VP, 4MeS-NE-BP, 4MeS-αP-BP, or 4MeS-αMor-PrP. The mixture was incubated for 30 min at 37 °C and with gentle shaking at 200 rpm. […] The Centrifree devices were centrifuged for 35 min at 1600 × g to obtain 100 µL of the ultrafiltrate (UF). […] Experiments were performed in quadruplicate. Fraction unbound (fu) and PPB were determined by comparing the area ratios of the compound and trimipramine-d3 as an internal standard in the UF and GA using the following equations:1 fu=peak area ratiocompoundUF/ISUF/peak area ratiocompoundGA/ISGA 2 PPB[\%]=1-fu∗100.

[4] = as above; assay type: in vitro ADME; details: human, pooled human blood plasma, 30 min, 37 °C, ultrafiltration, read-out: fu (unbound fraction)
Method: as §1

[5] = system: pooled human liver S9 fraction (pHLS9); experiment: Incubations using pooled human liver S9 fraction; details: 25 µM parent, 60 and 360 min
Method: In short, 25 μg/mL alamethicin (UGT reaction mix B), pHLS9 (2 mg microsomal protein/mL), 2.5 mM isocitrate, 0.8 U/mL isocitrate dehydrogenase, 100 U/mL superoxide dismutase, 0.6 mM NADP^+, and 2.5 mM Mg^2+ were preincubated for 10 min at 37 °C. Then, 2.5 mM UDP-glucuronic acid (UGT reaction mix A), 40 µM PAPS, 1.2 mM SAM, 1 mM DTT, and 10 mM GSH were added. The reaction was started by adding the substrate (25 µM each, final), resulting in a final incubation volume of 150 µL. MDMA or quetiapine (25 µM and 250 µM final concentrations) was incubated as positive controls. […] Incubations were performed in triplicate and organic solvent in the incubation mixture was below 1% (Chauret et al. [1998]). After an incubation time of 60 and 360 min, aliquots (50 µL) were transferred to a new reaction tube. The reaction was stopped with 30 µL acetonitrile (−20 °C) containing 2.5 µM trimipramine-d3 as an internal standard. Samples were vortexed, stored at −20 °C for 30 min, and centrifuged for 2 min at 18,407 × g. 70 µL of the supernatant were transferred to autosampler vials and 5 µL was injected onto the LC–HRMS/MS system.

HepaRG cells = experiment: Incubations using HepaRG cells; details: 25 µM parent, 24 h
Method: Cell incubations were performed in a monolayer assay (Kroesen et al. [2025]) and in accordance with the manufacturer’s instructions.
All incubations were performed in triplicate, with each well containing 0.5% (v/v) DMSO. Following incubation, 50 µL of the medium supernatant was transferred to a new reaction tube and precipitated with 30 µL of acetonitrile cooled to −20 °C, containing 2.5 µM trimipramine-d3 as an internal standard. […] The mixture was vortexed and centrifuged for 2 min at 18,407 × g. A volume of 70 µL of the supernatant was transferred into an autosampler vial and 5 µL was injected onto the LC–HRMS/MS system.
HepaRG cells were thawed and resuspended in 13.5 mL (~ 740,000 cells/mL) thaw
and seed medium at 37 °C. Thaw and seed medium consisted of Williams E medium,
100 U/mL penicillin, 100 µg/mL streptomycin, GlutaMAX, and HPRG670 supplement.
Cells were handled under sterile conditions using a laminar flow bench class II (Thermo
Scientific, TF, Schwerte, Germany). Aliquots of 100 µL cell suspension were seeded
on collagen-coated 96-well plates (~ 74,000 cells/well). Evaporation was minimized by
filling the outer wells with 100 µL thaw and seed medium. Cells were preincubated for
4 h in an incubator (Binder, Tuttlingen, Germany) at 37 °C, 95 % air humidity, and 5 %
CO2. After preincubation, 50 µL of the thaw and seed medium was replaced with 50 µL
solution of each cathinone (25 µM) in thaw and seed medium, followed by an
incubation for 24 h at 37 °C, 95 % air humidity, and 5 % CO2 atmosphere.
A Thermo Fisher ( TF, Dreieich, Germany) Dionex UltiMate 3000 RS pump consisting
of a degasser, a quaternary pump, and an autosampler, coupled to a TF Q Exactive
Plus system equipped with a heated electrospray ionization (HESI)-II source were
used. A mass calibration was done according to the manufacturer's recommendations
using external mass calibration prior to analysis. Gradient elution was performed on a
TF Accucore PhenylHexyl column (100 mm x 2.1 mm, 2.6 μm) with a 2 mM aqueous
ammonium formate solution containing 0.1 % (v/v) formic acid (pH 3, eluent A) and 2
mM ammonium formate solution in acetonitrile/methanol (50:50, v/v) containing 0.1 %
(v/v) formic acid, and 1 % (v/v) water (eluent B). The gradient was stepped as follows:
hold 99 % A. Initial flow rate from 0–9.5 min was 500 μL/min and final flow rate was
800 μL/min from 9.5–11.5 min. Mass spectrometry was performed using full scan data
and a subsequent data-dependent acquisition (DDA) with priority to mass-to-charge
ratios (m/z) of parent compounds and their expected metabolites. The inclusion list
contained m/z values of likely formed metabolites such as O- or S-desmethyl, hydroxy,
and oxo reduction metabolites (phase I) as well as sulfates, glucuronides (phase II),
and combinations thereof.
TF Xcalibur Qual Browser software […]

CYP2B6 = target: T1, CYP2B6 (Homo sapiens, UniProt P20813); experiment: Monooxygenases activity screening, CYP2B6; assay type: in vitro ADME; design: key: +, detected; -, not detected; details: substrate 4MeS-NE-BP 25 µM, 30 min, 37 °C; Table S3.4
T1 construct: purchased Discovery Life Sciences (Huntsville, LA, USA); host or cells: baculovirus-infected insect cells (microsomes, Supersomes)
T1 sequence (P20813 1-491): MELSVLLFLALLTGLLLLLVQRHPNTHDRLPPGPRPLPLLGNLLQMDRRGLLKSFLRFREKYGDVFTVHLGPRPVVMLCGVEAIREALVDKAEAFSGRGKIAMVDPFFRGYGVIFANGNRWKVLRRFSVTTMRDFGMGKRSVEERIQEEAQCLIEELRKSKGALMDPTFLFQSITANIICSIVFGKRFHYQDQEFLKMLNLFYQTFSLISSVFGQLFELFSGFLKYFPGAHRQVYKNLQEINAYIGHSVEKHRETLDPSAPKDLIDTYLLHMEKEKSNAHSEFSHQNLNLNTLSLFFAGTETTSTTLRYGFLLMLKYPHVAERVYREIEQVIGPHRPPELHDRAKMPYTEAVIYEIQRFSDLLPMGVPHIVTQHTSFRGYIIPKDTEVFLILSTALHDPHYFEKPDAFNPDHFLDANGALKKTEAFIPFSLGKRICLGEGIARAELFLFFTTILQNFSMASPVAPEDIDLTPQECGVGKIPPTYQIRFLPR
Method: (§2) For incubations with CYP2A6 or CYP2C9, phosphate buffer was replaced with 90 mM Tris buffer, according to the manufacturer’s guideline. […] All incubations were done in duplicate and concentrations were fixed. Verapamil (25 µM) was incubated as a positive control.

CYP2C9 = target: T2, CYP2C9 (Homo sapiens, UniProt P11712); experiment: Monooxygenases activity screening, CYP2C9; assay type: in vitro ADME; design: key: +, detected; -, not detected; details: substrate 4MeS-NE-BP 25 µM, 30 min, 37 °C; Table S3.4
T2 construct: purchased Discovery Life Sciences (Huntsville, LA, USA); host or cells: baculovirus-infected insect cells (microsomes, Supersomes)
Method: as §2

CYP3A4 = target: T3, CYP3A4 (Homo sapiens, UniProt P08684); experiment: Monooxygenases activity screening, CYP3A4; assay type: in vitro ADME; design: key: +, detected; -, not detected; details: substrate 4MeS-NE-BP 25 µM, 30 min, 37 °C; Table S3.4
T3 construct: purchased Discovery Life Sciences (Huntsville, LA, USA); host or cells: baculovirus-infected insect cells (microsomes, Supersomes)
Method: as §2

CYP2D6 = target: T4, CYP2D6 (Homo sapiens, UniProt P10635); experiment: Monooxygenases activity screening, CYP2D6; assay type: in vitro ADME; design: key to one-step metabolite detected in CYP2D6 incubation: +, detected; -, not detected; details: substrate 4MeS-NE-BP 25 µM, 30 min, 37 °C; Table S3.4
T4 construct: purchased Discovery Life Sciences (Huntsville, LA, USA); host or cells: baculovirus-infected insect cells (microsomes, Supersomes)
Method: as §2

CYP3A5 = target: T5, CYP3A5 (Homo sapiens, UniProt P20815); experiment: Monooxygenases activity screening, CYP3A5; assay type: in vitro ADME; design: key: +, detected; -, not detected; details: substrate 4MeS-NE-BP 25 µM, 30 min, 37 °C; Table S3.4
T5 construct: purchased Discovery Life Sciences (Huntsville, LA, USA); host or cells: baculovirus-infected insect cells (microsomes, Supersomes)
Method: as §2

CYP2A6 = target: T6, CYP2A6 (Homo sapiens, UniProt P11509); experiment: Monooxygenases activity screening, CYP2A6; assay type: in vitro ADME; design: key: +, detected; -, not detected; details: substrate 4MeS-NE-BP 25 µM, 30 min, 37 °C; Table S3.4
T6 construct: purchased Discovery Life Sciences (Huntsville, LA, USA); host or cells: baculovirus-infected insect cells (microsomes, Supersomes)
T6 sequence (P11509 1-494): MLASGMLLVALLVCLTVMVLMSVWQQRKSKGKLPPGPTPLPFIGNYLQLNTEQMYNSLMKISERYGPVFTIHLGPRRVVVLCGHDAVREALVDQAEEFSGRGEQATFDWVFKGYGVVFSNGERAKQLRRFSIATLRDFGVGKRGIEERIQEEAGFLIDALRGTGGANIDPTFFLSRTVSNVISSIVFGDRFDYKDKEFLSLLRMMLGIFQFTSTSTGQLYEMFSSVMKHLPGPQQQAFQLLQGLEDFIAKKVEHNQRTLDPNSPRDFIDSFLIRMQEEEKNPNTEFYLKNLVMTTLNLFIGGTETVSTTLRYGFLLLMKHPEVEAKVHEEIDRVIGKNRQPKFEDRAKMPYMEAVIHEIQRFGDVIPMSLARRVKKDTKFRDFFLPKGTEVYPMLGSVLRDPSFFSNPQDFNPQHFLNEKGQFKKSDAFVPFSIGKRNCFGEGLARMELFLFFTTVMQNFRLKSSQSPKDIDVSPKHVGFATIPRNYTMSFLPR
Method: as §2

[6] = target: T7, flavin-containing monooxygenase 3 (FMO3) (Homo sapiens, UniProt P31513); experiment: Monooxygenases activity screening, FMO3; assay type: in vitro ADME; design: key: +, detected; -, not detected; details: substrate 4MeS-NE-BP 25 µM, 30 min, 37 °C; Table S3.4
T7 construct: purchased Discovery Life Sciences (Huntsville, LA, USA); host or cells: baculovirus-infected insect cells (microsomes, Supersomes)
T7 sequence (P31513 1-532): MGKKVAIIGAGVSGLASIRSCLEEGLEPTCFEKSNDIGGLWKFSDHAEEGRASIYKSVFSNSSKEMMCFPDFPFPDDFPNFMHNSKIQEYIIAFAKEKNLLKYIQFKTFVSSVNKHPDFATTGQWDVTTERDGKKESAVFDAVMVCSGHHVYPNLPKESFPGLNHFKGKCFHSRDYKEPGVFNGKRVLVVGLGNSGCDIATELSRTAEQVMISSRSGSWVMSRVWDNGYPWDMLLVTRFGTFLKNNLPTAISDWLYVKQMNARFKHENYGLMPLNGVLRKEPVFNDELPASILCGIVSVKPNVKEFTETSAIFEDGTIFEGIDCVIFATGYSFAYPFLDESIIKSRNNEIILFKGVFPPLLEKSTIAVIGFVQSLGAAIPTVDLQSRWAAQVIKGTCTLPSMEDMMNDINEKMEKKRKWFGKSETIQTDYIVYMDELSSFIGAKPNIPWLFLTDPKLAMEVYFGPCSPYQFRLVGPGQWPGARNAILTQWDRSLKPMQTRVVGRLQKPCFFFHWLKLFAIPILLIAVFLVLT
Method: as §2

CYP2C19 = target: T8, CYP2C19 (Homo sapiens, UniProt P33261); experiment: Monooxygenases activity screening, CYP2C19; assay type: in vitro ADME; design: key: +, detected; -, not detected; details: substrate 4MeS-NE-BP 25 µM, 30 min, 37 °C; Table S3.4
T8 construct: purchased Discovery Life Sciences (Huntsville, LA, USA); host or cells: baculovirus-infected insect cells (microsomes, Supersomes)
Method: as §2

CYP2E1 = target: T9, CYP2E1 (Homo sapiens, UniProt P05181); experiment: Monooxygenases activity screening, CYP2E1; assay type: in vitro ADME; design: key: +, detected; -, not detected; details: substrate 4MeS-NE-BP 25 µM, 30 min, 37 °C; Table S3.4
T9 construct: purchased Discovery Life Sciences (Huntsville, LA, USA); host or cells: baculovirus-infected insect cells (microsomes, Supersomes)
Method: as §2

CYP1A2 = target: T10, CYP1A2 (Homo sapiens, UniProt P05177); experiment: Monooxygenases activity screening, CYP1A2; assay type: in vitro ADME; design: key: +, detected; -, not detected; details: substrate 4MeS-NE-BP 25 µM, 30 min, 37 °C; Table S3.4
T10 construct: purchased Discovery Life Sciences (Huntsville, LA, USA); host or cells: baculovirus-infected insect cells (microsomes, Supersomes)
T10 sequence (P05177 1-516): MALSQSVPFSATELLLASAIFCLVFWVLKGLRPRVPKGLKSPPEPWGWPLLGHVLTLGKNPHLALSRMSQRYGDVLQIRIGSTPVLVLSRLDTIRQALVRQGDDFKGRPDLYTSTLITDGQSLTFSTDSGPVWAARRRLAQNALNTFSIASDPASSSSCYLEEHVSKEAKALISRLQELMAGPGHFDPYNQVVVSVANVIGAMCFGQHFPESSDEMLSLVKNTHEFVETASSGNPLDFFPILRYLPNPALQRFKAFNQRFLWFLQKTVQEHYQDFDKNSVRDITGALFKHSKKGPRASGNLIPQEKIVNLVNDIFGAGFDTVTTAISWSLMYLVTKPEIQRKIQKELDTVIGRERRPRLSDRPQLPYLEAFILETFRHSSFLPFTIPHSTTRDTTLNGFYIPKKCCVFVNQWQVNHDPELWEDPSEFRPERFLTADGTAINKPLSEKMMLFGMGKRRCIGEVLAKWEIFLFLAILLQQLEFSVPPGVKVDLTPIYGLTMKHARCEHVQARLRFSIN
Method: as §2

CYP2C8 = target: T11, CYP2C8 (Homo sapiens, UniProt P10632); experiment: Monooxygenases activity screening, CYP2C8; assay type: in vitro ADME; design: key: +, detected; -, not detected; details: substrate 4MeS-NE-BP 25 µM, 30 min, 37 °C; Table S3.4
T11 construct: purchased Discovery Life Sciences (Huntsville, LA, USA); host or cells: baculovirus-infected insect cells (microsomes, Supersomes)
T11 sequence (P10632 1-490): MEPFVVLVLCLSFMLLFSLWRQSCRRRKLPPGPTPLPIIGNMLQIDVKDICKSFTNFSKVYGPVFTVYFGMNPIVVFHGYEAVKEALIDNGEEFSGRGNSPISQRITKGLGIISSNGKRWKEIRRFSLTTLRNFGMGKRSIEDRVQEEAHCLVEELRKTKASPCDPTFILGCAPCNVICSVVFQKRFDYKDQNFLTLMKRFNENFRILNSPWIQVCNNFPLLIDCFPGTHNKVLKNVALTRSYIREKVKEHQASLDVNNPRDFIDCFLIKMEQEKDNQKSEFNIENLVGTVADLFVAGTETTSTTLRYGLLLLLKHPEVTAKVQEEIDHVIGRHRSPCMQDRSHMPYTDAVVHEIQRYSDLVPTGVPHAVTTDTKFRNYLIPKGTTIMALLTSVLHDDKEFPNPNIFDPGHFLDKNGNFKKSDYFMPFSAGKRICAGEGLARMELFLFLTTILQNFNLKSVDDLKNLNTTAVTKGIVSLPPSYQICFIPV
Method: as §2

T5 sequence (P20815 whole entry): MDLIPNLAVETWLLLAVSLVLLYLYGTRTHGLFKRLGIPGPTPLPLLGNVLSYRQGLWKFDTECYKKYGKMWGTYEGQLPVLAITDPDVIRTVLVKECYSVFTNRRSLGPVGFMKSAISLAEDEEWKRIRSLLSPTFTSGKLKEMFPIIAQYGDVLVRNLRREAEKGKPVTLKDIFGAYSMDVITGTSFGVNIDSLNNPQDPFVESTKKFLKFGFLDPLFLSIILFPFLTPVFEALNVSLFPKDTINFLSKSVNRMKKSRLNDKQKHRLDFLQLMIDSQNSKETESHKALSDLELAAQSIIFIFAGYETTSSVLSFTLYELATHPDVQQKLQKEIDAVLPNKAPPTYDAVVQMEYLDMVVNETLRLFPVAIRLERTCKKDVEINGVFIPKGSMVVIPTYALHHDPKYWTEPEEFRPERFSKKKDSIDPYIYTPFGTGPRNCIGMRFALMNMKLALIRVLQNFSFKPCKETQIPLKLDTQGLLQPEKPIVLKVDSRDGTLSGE
T8 sequence (P33261 whole entry): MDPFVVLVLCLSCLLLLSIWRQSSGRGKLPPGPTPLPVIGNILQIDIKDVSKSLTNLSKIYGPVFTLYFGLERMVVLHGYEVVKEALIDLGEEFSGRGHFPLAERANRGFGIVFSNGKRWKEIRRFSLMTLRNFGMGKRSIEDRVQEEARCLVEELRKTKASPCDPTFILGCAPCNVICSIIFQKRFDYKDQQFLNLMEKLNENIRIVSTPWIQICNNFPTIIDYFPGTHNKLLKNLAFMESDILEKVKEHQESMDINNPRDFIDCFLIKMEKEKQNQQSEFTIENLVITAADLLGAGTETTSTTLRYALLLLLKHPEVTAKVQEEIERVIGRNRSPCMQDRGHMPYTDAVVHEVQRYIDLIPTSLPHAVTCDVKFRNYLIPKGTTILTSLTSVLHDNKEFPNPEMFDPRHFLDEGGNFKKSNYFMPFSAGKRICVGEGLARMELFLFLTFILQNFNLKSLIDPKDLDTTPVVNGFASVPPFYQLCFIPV
T3 sequence (P08684 whole entry): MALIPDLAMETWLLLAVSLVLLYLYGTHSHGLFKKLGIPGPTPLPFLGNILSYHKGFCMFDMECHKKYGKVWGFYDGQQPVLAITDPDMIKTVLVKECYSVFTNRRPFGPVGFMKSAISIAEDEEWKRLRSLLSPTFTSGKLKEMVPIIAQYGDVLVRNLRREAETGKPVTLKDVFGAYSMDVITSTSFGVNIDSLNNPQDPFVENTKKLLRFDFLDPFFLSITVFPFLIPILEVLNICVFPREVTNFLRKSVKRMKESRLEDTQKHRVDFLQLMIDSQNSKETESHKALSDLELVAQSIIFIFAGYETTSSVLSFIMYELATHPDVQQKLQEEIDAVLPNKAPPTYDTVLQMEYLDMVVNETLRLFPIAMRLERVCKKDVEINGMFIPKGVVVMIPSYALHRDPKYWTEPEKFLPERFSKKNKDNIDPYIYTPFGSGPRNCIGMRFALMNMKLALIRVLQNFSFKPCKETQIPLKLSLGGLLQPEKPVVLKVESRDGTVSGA
T9 sequence (P05181 whole entry): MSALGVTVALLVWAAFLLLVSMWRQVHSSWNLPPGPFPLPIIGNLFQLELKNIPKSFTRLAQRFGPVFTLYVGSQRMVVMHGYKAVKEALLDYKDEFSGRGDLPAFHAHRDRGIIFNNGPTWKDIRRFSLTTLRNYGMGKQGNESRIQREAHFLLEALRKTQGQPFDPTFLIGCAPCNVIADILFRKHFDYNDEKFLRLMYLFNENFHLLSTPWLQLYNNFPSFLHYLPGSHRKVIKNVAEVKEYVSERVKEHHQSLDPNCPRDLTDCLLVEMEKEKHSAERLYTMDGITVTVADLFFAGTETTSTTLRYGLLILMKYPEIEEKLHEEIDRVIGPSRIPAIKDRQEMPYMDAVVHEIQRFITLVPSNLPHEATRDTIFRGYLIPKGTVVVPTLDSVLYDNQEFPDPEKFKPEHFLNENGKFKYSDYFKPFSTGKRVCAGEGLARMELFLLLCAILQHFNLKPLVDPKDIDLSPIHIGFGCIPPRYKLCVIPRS
T2 sequence (P11712 whole entry): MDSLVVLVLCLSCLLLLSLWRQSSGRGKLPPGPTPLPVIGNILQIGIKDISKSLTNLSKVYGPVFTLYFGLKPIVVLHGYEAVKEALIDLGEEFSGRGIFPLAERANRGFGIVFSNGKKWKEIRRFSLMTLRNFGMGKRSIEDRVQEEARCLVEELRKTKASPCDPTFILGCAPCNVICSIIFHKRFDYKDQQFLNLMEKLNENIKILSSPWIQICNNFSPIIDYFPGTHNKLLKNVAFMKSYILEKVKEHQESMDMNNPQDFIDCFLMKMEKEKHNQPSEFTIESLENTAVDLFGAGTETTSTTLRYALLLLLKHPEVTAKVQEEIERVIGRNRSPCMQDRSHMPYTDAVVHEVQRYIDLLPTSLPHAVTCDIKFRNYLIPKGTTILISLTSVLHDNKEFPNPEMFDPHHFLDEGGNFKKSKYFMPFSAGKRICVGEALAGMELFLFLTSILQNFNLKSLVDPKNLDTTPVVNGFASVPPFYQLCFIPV
T4 sequence (P10635 whole entry): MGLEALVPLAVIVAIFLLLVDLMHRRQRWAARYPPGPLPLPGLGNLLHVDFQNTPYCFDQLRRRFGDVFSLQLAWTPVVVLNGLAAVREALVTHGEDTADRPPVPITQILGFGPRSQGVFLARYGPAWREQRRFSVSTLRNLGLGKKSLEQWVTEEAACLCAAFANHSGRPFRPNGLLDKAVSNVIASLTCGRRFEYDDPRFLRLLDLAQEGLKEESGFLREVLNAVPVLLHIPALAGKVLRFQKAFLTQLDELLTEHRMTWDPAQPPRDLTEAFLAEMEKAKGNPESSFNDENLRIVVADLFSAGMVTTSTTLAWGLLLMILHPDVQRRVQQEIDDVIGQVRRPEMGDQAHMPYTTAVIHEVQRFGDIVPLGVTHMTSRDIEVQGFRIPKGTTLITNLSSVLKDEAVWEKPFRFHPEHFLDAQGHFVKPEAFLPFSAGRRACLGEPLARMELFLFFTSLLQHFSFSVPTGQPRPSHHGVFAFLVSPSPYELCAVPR

Compound | Phase II metabolism [1] | metabolic reactions (metabolite IDs) identified [1] | number of metabolites tentatively identified [1] | monoamine uptake inhibition, relative potency at transporters [2] | Plasma protein binding, class in words [3] | PPB, % ([3]; 30 min, 37 °C, ultrafiltration) [%] | fraction unbound at 30 min, 0.5 µM [4] | metabolite detection in pHLS9 [5] | metabolite detection in HepaRG incubations (HepaRG cells) | one-step metabolite detected in CYP2B6 incubation (CYP2B6) | one-step metabolite detected in CYP2C9 incubation (CYP2C9) | one-step metabolite detected in CYP3A4 incubation (CYP3A4) | one-step metabolite detected in CYP2D6 incubation (CYP2D6) | one-step metabolite detected in CYP3A5 incubation (CYP3A5) | one-step metabolite detected in CYP2A6 incubation (CYP2A6) | one-step metabolite detected in FMO3 incubation [6] | one-step metabolite detected in CYP2C19 incubation (CYP2C19) | one-step metabolite detected in CYP2E1 incubation (CYP2E1) | one-step metabolite detected in CYP1A2 incubation (CYP1A2) | one-step metabolite detected in CYP2C8 incubation (CYP2C8)
CCCC(C(=O)c1ccc(OC)cc1)N1CCCC1 (stereo not drawn) [Compound 4MeO-αP-VP, 4’-methoxy-α-pyrrolidinovalerophenone] | O-sulfation (MO3.9) and O-glucuronidation (MO3.10) after O-demethylation | hydroxylation (MO3.1, MO3.3), O-demethylation (MO3.2), N-oxidation (MO3.4), lactam formation (MO3.5), O-demethylation + aromatic hydroxylation (MO3.6), hydroxylation + N-oxidation (MO3.7), and O-demethylation + dihydroxylation at the pyrrolidine ring (MO3.8) | 10 | greater potency in dopamine than serotonin transporters | moderate | 61 | 0.39 |  |  |  |  |  |  |  |  |  |  |  |  | 
CCCC(C(=O)c1ccc(OC2OC(C(=O)O)C(O)C(O)C2O)cc1)N1CCCC1 (stereo not drawn) [MO3.10] |  |  |  |  |  |  |  | could not be detected | observed in HepaRG incubations |  |  |  |  |  |  |  |  |  |  | 
CCC(C(=O)c1ccc(SC)cc1)N(O)CC (stereo not drawn) [MT1.4] |  |  |  |  |  |  |  |  | only detected in HepaRG incubations | - | - | + | + | + | - | + | - | - | + | -

— article PMC12858467, “In vitro toxicokinetics and metabolic profiling of methoxycathinones and methylthiocathinones using human liver systems and hyphenated mass spectrometry” (Archives of Toxicology, 2025)
